Measured values taken from patent US10286004B2, “Targeting-enhanced anticancer nanoparticles and preparation methods of same” (JINIS CO., LTD., priority 2013, dated 2019).

Legend:
[1] = Tumor targeting efficacy: drug distribution between tumor and healthy tissues in xenograft mice (LC/MS); assay type: in vivo; details: female, athymic nude, mouse, iv; tumor tissue; 10 mg/kg/day i.v.; organs collected 16 hours after administration
Description: (§1) To evaluate the tumor-targeting characteristics of the targeting-enhanced nanoparticles formulated in the Examples 1 and 2, the nanoparticles were injected into mice containing human breast xenograft tumors, and the distribution of radioactivity between tumor tissues and healthy tissues was analyzed.
(§2) When the tumors reached a size of ˜100 mm^3, mice were treated intravenously with either saline control or nanoparticle preparations prepared in Examples 1 and 2, at a dose of 10 mg/kg/day. Organs from each mouse were collected at 16 hours after nanoparticle administration and ground completely with the Beadbeater. The analyte drugs were extracted from the ground tissues with acetonitrile, and the drug concentrations in each tissue were analyzed by LC/MS. The drug concentrations delivered to each tissue relative to the Injected Dose (ID) were measured in both healthy and tumor tissues, as shown in Table 3.
(§3) Targeting-enhanced nanoparticles containing paclitaxel were administered intravenously to mice with tumor xenografts, and at 4 hours after injection, the mice were exposed to a light-emitting diode, LED, at the wavelength of 630 nm at an intensity of […] for 30 minutes.

[2] = system: human breast xenograft tumors (MDA-MB-231); assay: as above; assay type: in vivo; details: 10 mg/kg/day i.v., organs collected 16 hours after administration; for healthy % ID/g: healthy tissues
Description: as §1, §2, §3

[3] = system: large-sized tumor xenografts representing late-stage cancer; assay: Efficacy of doxorubicin nanoparticles in late-stage cancer xenograft; assay type: in vivo, mice; details: without LED stated
Description: The lung cancer cell line NCI-H460-luc2 (Caliper Life Sciences) was prepared in suspension at 5×10^6 cells.
Tumor growth was monitored using bioluminescence imaging of luciferase-expressing cancer cell lines. Mice were injected intraperitoneally with D-luciferin at a dosage of 150 mg luciferin/kg body weight. Mice were then anesthetized under isoflurane gas supplemented with oxygen and placed under a camera equipped with a Xenogen IVIS 200 imager to generate a bioluminescent image using an IVIS imaging system (Xenogen). Bioluminescence color images were superimposed using Living Image software.

healthy mice = assay: Toxicity (LD50) in healthy mice; assay type: in vivo; details: monitored 14 days, based on mortality
Description: After establishment of the tumor-xenograft model, either healthy mice or tumor-xenografted mice were divided into three groups (n=6) receiving saline solution (control group), free paclitaxel at the indicated dose, or targeting-enhanced nanoparticles in saline solution at the indicated dose of paclitaxel. […] To evaluate their toxicity, targeting-enhanced nanoparticles were administered to healthy mice and tumor-xenograft mice at 10 different dosages of paclitaxel: 20, 40, 60, 80, 100, 120, 250, 300, 350, and 400 mg/kg/day. Body weights and physical changes were monitored over 14 days, and the LD50s were calculated based on mortality.

| tissue uptake at 16 h [1] | healthy % ID/g [2] | SMILES | tumor growth day 0 to day 28 (FIG. 10) [3] | tumor % ID/g ([2]; tumor tissue) | LD50 (healthy mice) |
| --- | --- | --- | --- | --- | --- |
| 1.5 %ID/g | 0.4~3.4 % ID/g | COc1cccc2c1C(=O)c1c(O)c3c(c(O)c1C2=O)C[C@@](O)(C(=O)CO)C[C@@H]3O[C@H]1C[C@H](N)[C@H](O)[C@H](C)O1 [Free drug doxorubicin, doxorubicin] | clear tumor growth | – | – |
| 2.4 %ID/g | 0.2~4.2 % ID/g | Nc1ccn([C@@H]2O[C@H](CO)[C@@H](O)C2(F)F)c(=O)n1 [Free drug gemcitabine, gemcitabine] | – | – | – |

| SMILES | tissue uptake at 16 h [1] | healthy % ID/g [2] | tumor growth day 0 to day 28 (FIG. 10) [3] | tumor % ID/g ([2]; tumor tissue) | LD50 (healthy mice) |
| --- | --- | --- | --- | --- | --- |
| O=C1[O][Pt]2([NH][C@@H]3CCCC[C@H]3[NH]2)[O]C1=O [Free drug oxaliplatin, oxaliplatin] | – | 0.1~3.5 % ID/g | – | 2.5 % ID/g | – |
| CC(=O)O[C@H]1C(=O)[C@@]2(C)[C@H]([C@H](OC(=O)c3ccccc3)[C@]3(O)C[C@H](OC(=O)[C@H](O)[C@@H](NC(=O)c4ccccc4)c4ccccc4)C(C)=C1C3(C)C)[C@]1(OC(C)=O)CO[C@@H]1C[C@@H]2O [Free drug paclitaxel, paclitaxel] | 0.52 %ID/g | – | – | – | 30 mg/kg/day |
